Measured values from publication PMC11167047 (Cell Death Discovery, 2024).

Experiments:
Assay in all cases: kinome screen (33PanQinase)
Format in all cases: biochemical
AuroraB = target: T1, AuroraB (Homo sapiens, UniProt Q96GD4)
T1 construct: purchased Reaction Biology Europe GmbH (formerly ProQinase)
Description: (§1) The Kinome Screening was performed by Reaction Biology Europe GmbH (http://reactionbiology.com; Freiburg i. Br., Germany).

CAMK2G = target: T2, CAMK2G (Homo sapiens, UniProt Q13555)
T2 construct: purchased Reaction Biology Europe GmbH (formerly ProQinase)
T2 sequence (Q13555 whole entry): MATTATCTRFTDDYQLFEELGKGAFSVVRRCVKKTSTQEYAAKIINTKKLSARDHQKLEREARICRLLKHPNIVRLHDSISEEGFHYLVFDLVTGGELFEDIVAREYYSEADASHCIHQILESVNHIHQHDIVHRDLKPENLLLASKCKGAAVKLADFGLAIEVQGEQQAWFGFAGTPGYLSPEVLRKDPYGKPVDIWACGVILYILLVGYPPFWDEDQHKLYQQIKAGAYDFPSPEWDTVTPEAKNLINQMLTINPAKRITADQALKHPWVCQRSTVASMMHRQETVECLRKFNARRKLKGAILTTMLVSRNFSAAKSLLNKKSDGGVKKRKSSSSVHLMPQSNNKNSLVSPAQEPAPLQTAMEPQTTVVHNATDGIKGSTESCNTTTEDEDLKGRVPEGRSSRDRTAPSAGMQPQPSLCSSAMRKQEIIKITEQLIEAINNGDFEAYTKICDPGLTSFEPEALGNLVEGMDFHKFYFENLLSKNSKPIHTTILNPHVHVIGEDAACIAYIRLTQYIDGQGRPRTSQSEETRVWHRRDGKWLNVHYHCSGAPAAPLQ
Description: as §1

CDK13/CycK = target: T3, CDK13/CycK (Homo sapiens, UniProt Q14004)
T3 construct: purchased Reaction Biology Europe GmbH (formerly ProQinase)
T3 sequence (Q14004 whole entry): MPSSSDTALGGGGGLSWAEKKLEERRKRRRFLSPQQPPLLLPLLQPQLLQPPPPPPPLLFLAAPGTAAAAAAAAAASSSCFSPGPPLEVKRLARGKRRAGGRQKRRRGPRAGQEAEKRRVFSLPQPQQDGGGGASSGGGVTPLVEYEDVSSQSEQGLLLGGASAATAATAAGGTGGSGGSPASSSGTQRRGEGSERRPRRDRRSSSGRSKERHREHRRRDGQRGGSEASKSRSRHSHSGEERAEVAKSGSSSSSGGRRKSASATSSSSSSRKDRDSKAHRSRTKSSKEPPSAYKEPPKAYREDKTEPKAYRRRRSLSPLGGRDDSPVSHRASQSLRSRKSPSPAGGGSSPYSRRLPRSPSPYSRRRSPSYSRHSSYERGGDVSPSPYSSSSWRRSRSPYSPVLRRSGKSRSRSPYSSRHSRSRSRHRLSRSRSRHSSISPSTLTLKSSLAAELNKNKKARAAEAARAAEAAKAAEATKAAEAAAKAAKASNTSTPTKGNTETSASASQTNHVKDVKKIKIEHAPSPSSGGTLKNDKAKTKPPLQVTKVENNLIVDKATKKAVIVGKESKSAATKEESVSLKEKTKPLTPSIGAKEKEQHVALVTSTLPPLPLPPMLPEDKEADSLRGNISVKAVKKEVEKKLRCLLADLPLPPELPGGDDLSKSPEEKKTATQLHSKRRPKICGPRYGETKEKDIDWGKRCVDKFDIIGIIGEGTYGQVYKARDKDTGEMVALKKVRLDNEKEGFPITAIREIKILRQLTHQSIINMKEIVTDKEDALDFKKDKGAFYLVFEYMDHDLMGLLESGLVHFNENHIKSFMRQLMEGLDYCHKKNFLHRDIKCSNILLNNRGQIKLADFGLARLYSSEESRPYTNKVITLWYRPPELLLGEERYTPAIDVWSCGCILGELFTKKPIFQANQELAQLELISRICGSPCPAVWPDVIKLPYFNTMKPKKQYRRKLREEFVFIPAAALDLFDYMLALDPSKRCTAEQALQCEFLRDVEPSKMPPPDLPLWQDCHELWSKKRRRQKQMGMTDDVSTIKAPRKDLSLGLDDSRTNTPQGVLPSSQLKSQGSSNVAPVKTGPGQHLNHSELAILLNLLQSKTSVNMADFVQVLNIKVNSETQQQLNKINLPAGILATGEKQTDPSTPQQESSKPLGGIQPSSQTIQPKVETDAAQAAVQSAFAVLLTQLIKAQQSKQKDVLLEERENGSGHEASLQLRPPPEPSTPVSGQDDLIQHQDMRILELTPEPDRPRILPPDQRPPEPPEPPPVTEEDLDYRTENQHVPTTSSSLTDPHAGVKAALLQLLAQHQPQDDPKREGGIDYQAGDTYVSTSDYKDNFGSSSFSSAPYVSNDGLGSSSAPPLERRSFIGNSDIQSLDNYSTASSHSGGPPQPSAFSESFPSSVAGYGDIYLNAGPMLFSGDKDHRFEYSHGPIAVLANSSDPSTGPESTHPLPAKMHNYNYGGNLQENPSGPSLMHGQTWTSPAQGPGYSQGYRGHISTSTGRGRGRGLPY
T3 sequence (O75909 whole entry partner): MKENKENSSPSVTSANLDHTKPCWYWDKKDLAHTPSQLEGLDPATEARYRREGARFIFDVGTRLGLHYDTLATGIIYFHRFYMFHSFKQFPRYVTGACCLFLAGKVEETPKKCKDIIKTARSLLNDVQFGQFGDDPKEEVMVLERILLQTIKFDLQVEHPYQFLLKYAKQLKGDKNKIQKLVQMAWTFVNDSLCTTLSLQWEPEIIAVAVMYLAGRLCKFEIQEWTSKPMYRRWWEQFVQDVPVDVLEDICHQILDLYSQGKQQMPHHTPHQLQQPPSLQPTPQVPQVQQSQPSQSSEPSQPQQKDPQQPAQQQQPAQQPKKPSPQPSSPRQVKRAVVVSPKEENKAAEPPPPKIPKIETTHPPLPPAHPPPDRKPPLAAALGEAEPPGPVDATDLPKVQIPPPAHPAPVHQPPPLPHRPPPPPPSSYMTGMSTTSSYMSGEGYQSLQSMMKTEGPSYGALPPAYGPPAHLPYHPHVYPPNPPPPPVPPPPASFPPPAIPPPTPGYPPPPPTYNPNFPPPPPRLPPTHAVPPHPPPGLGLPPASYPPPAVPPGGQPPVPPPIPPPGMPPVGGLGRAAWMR
Description: as §1

EGFR = target: T4, EGFR (Homo sapiens, UniProt P00533)
T4 construct: purchased Reaction Biology Europe GmbH (formerly ProQinase)
Description: as §1

HCK = target: T5, HCK (Homo sapiens, UniProt P08631)
T5 construct: purchased Reaction Biology Europe GmbH (formerly ProQinase)
T5 sequence (P08631 whole entry): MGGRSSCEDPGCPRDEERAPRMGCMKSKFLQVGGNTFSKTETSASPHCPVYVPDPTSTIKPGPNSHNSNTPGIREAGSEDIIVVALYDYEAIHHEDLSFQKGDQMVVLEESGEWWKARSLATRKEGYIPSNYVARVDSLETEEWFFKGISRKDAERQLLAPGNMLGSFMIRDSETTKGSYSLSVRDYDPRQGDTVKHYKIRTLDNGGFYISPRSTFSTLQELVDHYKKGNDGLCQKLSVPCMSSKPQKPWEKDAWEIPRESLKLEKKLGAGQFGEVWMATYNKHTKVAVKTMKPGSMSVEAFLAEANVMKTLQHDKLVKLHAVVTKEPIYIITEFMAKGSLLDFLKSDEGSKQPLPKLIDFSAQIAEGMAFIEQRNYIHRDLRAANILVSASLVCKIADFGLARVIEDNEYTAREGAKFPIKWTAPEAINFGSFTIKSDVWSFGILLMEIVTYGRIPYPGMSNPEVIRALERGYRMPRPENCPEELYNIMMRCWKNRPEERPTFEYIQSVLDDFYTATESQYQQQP
Description: as §1

LCK = target: T6, LCK (Homo sapiens, UniProt P06239)
T6 construct: purchased Reaction Biology Europe GmbH (formerly ProQinase)
T6 sequence (P06239 whole entry): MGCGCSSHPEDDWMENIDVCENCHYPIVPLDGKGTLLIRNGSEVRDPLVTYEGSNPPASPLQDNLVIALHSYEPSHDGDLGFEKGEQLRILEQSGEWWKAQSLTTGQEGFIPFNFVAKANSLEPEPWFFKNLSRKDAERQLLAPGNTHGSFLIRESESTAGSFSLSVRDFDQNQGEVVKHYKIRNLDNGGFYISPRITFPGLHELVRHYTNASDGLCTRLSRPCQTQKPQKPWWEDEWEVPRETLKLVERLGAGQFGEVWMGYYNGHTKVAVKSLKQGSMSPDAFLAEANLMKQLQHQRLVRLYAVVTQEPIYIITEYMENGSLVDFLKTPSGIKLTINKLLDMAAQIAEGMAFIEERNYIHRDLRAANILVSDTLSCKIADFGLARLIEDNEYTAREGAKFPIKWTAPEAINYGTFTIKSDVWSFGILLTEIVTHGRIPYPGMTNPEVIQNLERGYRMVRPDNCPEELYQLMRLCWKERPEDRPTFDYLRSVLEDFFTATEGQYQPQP
Description: as §1

MEKK3 = target: T7, MEKK3 (Homo sapiens, UniProt Q99759)
T7 construct: purchased Reaction Biology Europe GmbH (formerly ProQinase)
T7 sequence (Q99759 1-626): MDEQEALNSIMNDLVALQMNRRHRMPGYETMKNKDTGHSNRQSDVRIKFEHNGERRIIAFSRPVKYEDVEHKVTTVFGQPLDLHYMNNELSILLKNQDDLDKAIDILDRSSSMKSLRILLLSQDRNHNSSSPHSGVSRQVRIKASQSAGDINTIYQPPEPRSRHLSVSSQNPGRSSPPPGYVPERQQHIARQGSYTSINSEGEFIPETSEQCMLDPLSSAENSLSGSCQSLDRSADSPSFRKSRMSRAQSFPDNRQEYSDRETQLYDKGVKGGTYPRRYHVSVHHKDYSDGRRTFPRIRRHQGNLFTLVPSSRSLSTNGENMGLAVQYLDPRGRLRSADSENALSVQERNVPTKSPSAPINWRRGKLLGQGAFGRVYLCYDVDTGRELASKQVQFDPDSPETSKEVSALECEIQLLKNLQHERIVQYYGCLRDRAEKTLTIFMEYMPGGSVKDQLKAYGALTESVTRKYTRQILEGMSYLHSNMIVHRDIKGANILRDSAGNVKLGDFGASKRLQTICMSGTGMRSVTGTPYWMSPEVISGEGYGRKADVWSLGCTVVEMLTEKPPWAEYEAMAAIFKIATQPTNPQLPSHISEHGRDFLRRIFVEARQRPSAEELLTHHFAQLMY
Description: as §1

PIM2 = target: T8, PIM2 (Homo sapiens, UniProt Q9P1W9)
T8 construct: purchased Reaction Biology Europe GmbH (formerly ProQinase)
T8 sequence (Q9P1W9 whole entry): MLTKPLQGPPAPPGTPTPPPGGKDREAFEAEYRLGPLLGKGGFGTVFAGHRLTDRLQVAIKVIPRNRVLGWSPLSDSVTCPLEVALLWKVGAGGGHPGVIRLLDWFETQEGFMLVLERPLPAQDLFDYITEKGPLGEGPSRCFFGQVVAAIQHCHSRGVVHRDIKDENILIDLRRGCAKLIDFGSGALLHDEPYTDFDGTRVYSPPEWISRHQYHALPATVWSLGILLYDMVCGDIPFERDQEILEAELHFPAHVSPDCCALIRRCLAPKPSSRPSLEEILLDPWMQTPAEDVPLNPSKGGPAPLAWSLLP
Description: as §1

PKCε = target: T9, PKCε (Homo sapiens, UniProt Q02156)
T9 construct: purchased Reaction Biology Europe GmbH (formerly ProQinase)
T9 sequence (Q02156 1-737): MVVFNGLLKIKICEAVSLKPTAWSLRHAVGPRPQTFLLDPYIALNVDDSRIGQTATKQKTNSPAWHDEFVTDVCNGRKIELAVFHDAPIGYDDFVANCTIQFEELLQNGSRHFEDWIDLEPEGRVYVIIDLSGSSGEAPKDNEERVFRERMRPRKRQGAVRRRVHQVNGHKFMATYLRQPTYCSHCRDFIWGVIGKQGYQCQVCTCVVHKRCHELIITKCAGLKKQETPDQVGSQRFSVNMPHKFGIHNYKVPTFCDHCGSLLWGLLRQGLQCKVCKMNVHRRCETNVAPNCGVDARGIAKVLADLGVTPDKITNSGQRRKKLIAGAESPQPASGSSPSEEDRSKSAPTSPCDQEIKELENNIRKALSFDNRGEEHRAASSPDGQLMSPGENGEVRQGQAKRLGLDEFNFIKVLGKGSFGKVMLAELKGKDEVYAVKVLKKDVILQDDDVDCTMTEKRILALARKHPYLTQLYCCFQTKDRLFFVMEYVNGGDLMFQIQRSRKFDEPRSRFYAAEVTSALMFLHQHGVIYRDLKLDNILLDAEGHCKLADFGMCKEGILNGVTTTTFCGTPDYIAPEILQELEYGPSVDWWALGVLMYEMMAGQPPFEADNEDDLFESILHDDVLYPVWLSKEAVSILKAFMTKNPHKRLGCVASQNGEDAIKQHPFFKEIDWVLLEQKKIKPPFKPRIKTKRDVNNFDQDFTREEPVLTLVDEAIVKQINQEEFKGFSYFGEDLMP
Description: as §1

SRPK2 = target: T10, SRPK2 (Homo sapiens, UniProt P78362)
T10 construct: purchased Reaction Biology Europe GmbH (formerly ProQinase)
T10 sequence (P78362 whole entry): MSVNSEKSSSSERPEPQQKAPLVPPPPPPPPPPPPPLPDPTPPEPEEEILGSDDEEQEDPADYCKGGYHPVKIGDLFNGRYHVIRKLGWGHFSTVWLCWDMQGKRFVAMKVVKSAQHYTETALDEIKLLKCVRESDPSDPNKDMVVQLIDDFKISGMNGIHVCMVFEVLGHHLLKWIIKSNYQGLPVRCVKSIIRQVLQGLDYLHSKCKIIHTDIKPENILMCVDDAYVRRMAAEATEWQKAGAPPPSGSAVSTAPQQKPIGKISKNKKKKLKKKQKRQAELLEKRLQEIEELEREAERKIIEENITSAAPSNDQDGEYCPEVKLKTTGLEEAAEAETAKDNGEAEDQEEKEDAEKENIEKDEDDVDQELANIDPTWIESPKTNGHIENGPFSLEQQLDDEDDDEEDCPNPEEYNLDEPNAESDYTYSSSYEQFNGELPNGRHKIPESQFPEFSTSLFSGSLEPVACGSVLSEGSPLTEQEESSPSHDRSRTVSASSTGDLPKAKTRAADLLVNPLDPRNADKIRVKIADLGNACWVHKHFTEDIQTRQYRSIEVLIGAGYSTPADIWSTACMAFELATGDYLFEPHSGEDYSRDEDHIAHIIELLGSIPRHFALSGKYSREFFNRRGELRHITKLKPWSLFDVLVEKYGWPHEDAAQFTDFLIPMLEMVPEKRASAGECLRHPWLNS
Description: as §1

TAOK3 = target: T11, TAOK3 (Homo sapiens, UniProt Q9H2K8)
T11 construct: purchased Reaction Biology Europe GmbH (formerly ProQinase)
T11 sequence (Q9H2K8 1-898): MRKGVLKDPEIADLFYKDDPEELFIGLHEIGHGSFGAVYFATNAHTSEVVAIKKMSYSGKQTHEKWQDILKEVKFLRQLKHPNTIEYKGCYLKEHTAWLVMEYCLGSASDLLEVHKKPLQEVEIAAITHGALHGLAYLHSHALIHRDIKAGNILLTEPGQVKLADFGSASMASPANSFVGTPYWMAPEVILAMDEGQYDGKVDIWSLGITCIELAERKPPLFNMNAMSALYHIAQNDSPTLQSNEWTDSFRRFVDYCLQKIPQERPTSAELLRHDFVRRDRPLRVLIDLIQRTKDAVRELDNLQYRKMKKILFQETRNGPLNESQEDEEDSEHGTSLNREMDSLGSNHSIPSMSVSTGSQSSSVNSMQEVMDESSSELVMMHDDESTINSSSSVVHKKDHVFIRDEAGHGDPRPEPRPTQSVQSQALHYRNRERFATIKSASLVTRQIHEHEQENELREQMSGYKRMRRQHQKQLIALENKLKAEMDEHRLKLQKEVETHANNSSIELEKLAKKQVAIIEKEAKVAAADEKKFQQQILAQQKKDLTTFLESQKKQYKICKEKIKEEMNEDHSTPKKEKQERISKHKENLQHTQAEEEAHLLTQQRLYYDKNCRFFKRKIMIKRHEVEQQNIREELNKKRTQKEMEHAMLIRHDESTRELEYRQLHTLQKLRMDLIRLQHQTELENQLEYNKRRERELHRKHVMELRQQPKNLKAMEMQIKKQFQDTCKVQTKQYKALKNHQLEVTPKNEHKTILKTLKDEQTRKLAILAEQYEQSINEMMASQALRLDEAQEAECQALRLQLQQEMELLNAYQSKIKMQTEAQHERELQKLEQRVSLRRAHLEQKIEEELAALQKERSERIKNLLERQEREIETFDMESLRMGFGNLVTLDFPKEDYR
Description: as §1

T1 sequence (Q96GD4 whole entry): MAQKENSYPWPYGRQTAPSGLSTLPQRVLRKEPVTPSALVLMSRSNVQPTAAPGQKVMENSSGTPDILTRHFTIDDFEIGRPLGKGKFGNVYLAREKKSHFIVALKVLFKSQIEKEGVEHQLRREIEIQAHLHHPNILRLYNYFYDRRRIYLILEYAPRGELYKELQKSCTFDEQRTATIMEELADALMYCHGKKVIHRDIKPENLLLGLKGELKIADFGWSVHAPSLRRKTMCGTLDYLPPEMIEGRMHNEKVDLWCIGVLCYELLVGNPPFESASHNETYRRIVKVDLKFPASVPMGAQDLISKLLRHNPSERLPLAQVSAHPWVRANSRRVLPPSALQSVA

Structure (SMILES) | residual kinase activity (AuroraB; 0.3 µM) | residual kinase activity (CAMK2G; 0.3 µM) | residual kinase activity (CDK13/CycK; 0.3 µM) | residual kinase activity (EGFR; 0.3 µM) | residual kinase activity (HCK; 0.3 µM) | residual kinase activity (LCK; 0.3 µM) | residual kinase activity (MEKK3; 0.3 µM) | residual kinase activity (PIM2; 0.3 µM) | residual kinase activity (PKCε; 0.3 µM) | residual kinase activity (SRPK2; 0.3 µM) | residual kinase activity (TAOK3; 0.3 µM) | other results
COc1ccnc2[nH]cc(-c3cc(N)nc(N)c3)c12 [meriolin 16] | 61 % of control | 82 % of control | 5 % of control | 90 % of control | 81 % of control | 91 % of control | 90 % of control | 83 % of control | 4 % of control | 91 % of control | 91 % of control | residual kinase activity (AuroraB; 0.03 µM): 85 % of control; residual kinase activity (CAMK2G; 0.03 µM): 94 % of control; residual kinase activity (CDK13/CycK; 0.03 µM): 31 % of control; residual kinase activity (EGFR; 0.03 µM): 109 % of control; residual kinase activity (HCK; 0.03 µM): 106 % of control; residual kinase activity (LCK; 0.03 µM): 87 % of control; residual kinase activity (MEKK3; 0.03 µM): 106 % of control; residual kinase activity (PIM2; 0.03 µM): 115 % of control; residual kinase activity (PKCε; 0.03 µM): 25 % of control; residual kinase activity (SRPK2; 0.03 µM): 93 % of control; residual kinase activity (TAOK3; 0.03 µM): 111 % of control
c1ccc(CNc2cc(-c3c[nH]c4ncccc34)ccn2)cc1 [meriolin 36] | 67 % of control | 34 % of control | 12 % of control | 107 % of control | 75 % of control | 61 % of control | 66 % of control | 119 % of control | 5 % of control | 87 % of control | 44 % of control | residual kinase activity (AuroraB; 3 µM): 26 % of control; residual kinase activity (CAMK2G; 3 µM): 6 % of control; residual kinase activity (CDK13/CycK; 3 µM): -10 % of control; residual kinase activity (EGFR; 3 µM): 53 % of control; residual kinase activity (HCK; 3 µM): 25 % of control; residual kinase activity (LCK; 3 µM): 18 % of control; residual kinase activity (MEKK3; 3 µM): 26 % of control; residual kinase activity (PIM2; 3 µM): 90 % of control; residual kinase activity (PKCε; 3 µM): 1 % of control; residual kinase activity (SRPK2; 3 µM): 55 % of control; residual kinase activity (TAOK3; 3 µM): 6 % of control
